Experiment [1] deals with T1, CDK6/Cyclin D1 (Homo sapiens (Human), UniProt Q00534). Conditions: read-out: CDK6_Ki; non-phosphorylated CDK6/Cyclin D1, 2 mM ATP.
Experiment [2] has as its target T1, CDK6/Cyclin D1. Kind of experiment: biochemical.
Experiment [3] relates to HCC1806 mouse tumor xenograft. Kind of experiment: HCC1806 tumor model (mouse xenograft). Type of experiment: in vivo. Conditions: NU/NU female mice; 30, 50 and 75 mpk PO BID, 14 days. Here is the method:
• Source: HCC1806 (# CRL 2335, ATCC, Manassas, Va.)
The HCC1806 tumor cell line was cultured in RPMI1640 media supplemented with 10% Fetal Bovine Serum (FBS). To establish a HCC1806 xenograft model, 5×10^6 cells per mouse were implanted subcutaneously into right hind flank NU/NU female mice. Cells were suspended in 50% Cultrex Basement Membrane Extract and 50% RPMI 1640 media serum free media prior to implantation.
Animals were randomized 7 days after cells implantation with each group consisting of 13 mice. Treatment began when tumors reached 100 mm^3 to 170 mm^3 in size on Day 7. Test compounds were prepared in 0.1% Tween, 0.5% Methyl cellulose in water and dosed PO at 30, 50, and 75 mg/kg as a suspension BID for 14 days. Mice receiving no drugs were given vehicle BID for 14 days. Tumor volumes were measured twice a week with an electric caliper, with tumor volumes calculated using Length×Width×Width/2 formula. Animal weights were recorded twice weekly.

Experiment [4] deals with OVCAR3 mouse tumor xenograft. The experiment can be described thus: Ovcar3 tumor model (mouse xenograft). Type of experiment: in vivo. The conditions noted are these: NSG mice; 10 mpk PO QD, 50 mpk PO QD and 50 mpk PO BID, 14 days. Here is the method:
Ovcar3 tumor cell line, purchased from ATCC (ATCC HTB-161™) was cultured in RPMI1640 (1×) media (Gibco™ cat #11875-093) with 10% FBS (Gibco™ cat #26140-079). To establish a Ovcar3 xenograft model, 5×10^6 cells per mouse was implanted subcutaneously into right hind flank NSG mice (#5557-NOD.cg-PrkdcJackson Lab). Cells were suspended in 50% matrigel (Cultrex Basement Membrane Extract (BME), Trevigen's Basement Membrane Matrix) and 50% RPMI1640 (1×) media (Gibco™ cat #11875-093) serum free media prior to implantation.
Animals were randomized 39 days after cells implantation with each group consisted of 4 mice. Treatment began when tumors reached 100 mm^3-190 mm^3 in size. Test compounds were prepared in 40% Captisol and dosed PO at 10 and 50 mg/kg QD or at 50 mg/kg BID as a suspension for 14 days. Animals were taken down at designated time. Mice receiving no drugs were given vehicle QD or BID for 14 days. Tumor volumes were measured once prior to randomization with an electric caliper, with tumor volumes were calculated using Length×Width×Width/2 formulation. Tumor volumes were measured twice a week with an electric caliper, with tumor volumes calculated using Length×Width×Width/2 formula. Animal weights were recorded twice weekly.

Experiment [5] concerns the target CDK2/Cyclin E1 (Homo sapiens (Human), UniProt P24941). The experiment can be described thus: biochemical.
Protocol: The assay was initiated with the addition of ATP, following a fifteen minutes pre-incubation of enzyme and inhibitor at room temperature in the reaction mixture. The reaction was stopped after 45 minutes at room temperature by the addition of 50 μL of 80 mM EDTA, pH 7.5.

Structures are written as SMILES. Read-outs that look alike come from different tables or passages of the source.

T1 sequence (Q00534 whole entry): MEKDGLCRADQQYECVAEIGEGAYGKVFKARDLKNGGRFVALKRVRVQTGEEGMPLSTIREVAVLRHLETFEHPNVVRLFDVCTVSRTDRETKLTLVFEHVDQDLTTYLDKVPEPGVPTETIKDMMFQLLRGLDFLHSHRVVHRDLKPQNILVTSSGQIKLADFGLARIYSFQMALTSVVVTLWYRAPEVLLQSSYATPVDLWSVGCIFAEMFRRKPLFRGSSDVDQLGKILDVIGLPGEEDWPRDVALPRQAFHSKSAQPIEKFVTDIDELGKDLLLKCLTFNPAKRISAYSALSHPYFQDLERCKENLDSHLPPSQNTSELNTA
T1 sequence (P24385 whole entry partner): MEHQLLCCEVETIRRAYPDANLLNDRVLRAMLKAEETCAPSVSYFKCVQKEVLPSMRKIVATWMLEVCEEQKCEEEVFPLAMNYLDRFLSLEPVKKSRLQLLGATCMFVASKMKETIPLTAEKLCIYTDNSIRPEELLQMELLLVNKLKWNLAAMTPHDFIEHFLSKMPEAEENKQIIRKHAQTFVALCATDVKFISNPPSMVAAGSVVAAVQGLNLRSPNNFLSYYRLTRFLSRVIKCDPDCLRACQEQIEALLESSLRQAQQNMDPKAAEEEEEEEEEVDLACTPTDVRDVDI

As to `C[C@@]1(O)CCC[C@H]1n1c(=O)ccc2cnc(NC3CCN(S(=O)(=O)C4CCS(=O)(=O)C4)CC3)nc21` (single isomer, unassigned) [Example 71], the Ki in experiment [1] stood at 1.55 nM.

In experiment [2], `C[C@@]1(O)CCC[C@H]1n1c(=O)ccc2cnc(NC3CCN(S(=O)(=O)NC[C@@H]4CCCO4)CC3)nc21` (stereo in doubt) [Example 62] returned a Ki of 5.69 nM. Regarding `C[C@]1(O)CCC[C@@H]1n1c(=O)ccc2cnc(NC3CCN(S(=O)(=O)NC[C@@H]4CCCO4)CC3)nc21` (stereo in doubt) [Example 63], the Ki in experiment [2] was determined as 16.5 nM. Still for that read-out and setting: as for `C[C@@]1(O)CCC[C@H]1n1c(=O)ccc2cnc(NC3CCN(S(=O)(=O)NC[C@H]4CCCO4)CC3)nc21` (stereo in doubt) [Example 64], the figure is 4.69 nM; as for `C[C@]1(O)CCC[C@@H]1n1c(=O)ccc2cnc(NC3CCN(S(=O)(=O)NC[C@H]4CCCO4)CC3)nc21` (stereo in doubt) [Example 65], 25.6 nM. Still for that read-out and setting: the value for `Cc1cc2cnc(NC3CCN(S(=O)(=O)NC[C@@H]4CCCO4)CC3)nc2n([C@@H]2CCC[C@@]2(C)O)c1=O` (stereo in doubt) [Example 100] was 1.07 nM; that for `Cc1cc2cnc(NC3CCN(S(=O)(=O)NC[C@@H]4CCCO4)CC3)nc2n([C@H]2CCC[C@]2(C)O)c1=O` (stereo in doubt) [Example 101] was 23.5 nM. Same read-out and setting: the value for `Cc1cc2cnc(NC3CCN(S(=O)(=O)NC[C@H]4CCCO4)CC3)nc2n([C@@H]2CCC[C@@]2(C)O)c1=O` (stereo in doubt) [Example 102] was 0.8 nM; that for `Cc1cc2cnc(NC3CCN(S(=O)(=O)NC[C@H]4CCCO4)CC3)nc2n([C@H]2CCC[C@]2(C)O)c1=O` (stereo in doubt) [Example 103] was 19.6 nM. As to `C[C@@]1(O)CCC[C@H]1n1c(=O)ccc2cnc(NC3CCN(S(C)(=O)=O)CC3)nc21` [Example 2, 8-[(1R,2R)-2-hydroxy-2-methylcyclopentyl]-2-{[1-(methylsulfonyl)piperidin-4-yl]amino}pyrido[2,3-d]pyrimidin-7(8H)-one], the “inhibition of tumor growth (mm^3)” value in experiment [3] and in experiment [4] was “dose dependent inhibition of tumor growth” throughout. Regarding `CNS(=O)(=O)N1CCC(Nc2ncc3ccc(=O)n([C@@H]4CCC[C@H]4O)c3n2)CC1` [Example 55], the Ki in experiment [5] stood at 4.66 nM.
